Our source for the GI50 values is US9938273B2 (Plexxikon Inc., priority 2015, dated 2018).

The assay has as its target T1, BA/F3-FLT3-ITD + D835Y cells (Homo sapiens, UniProt P36888, D835Y, cells depend on it, form not given).
T1 sequence (P36888 1-993 D835Y): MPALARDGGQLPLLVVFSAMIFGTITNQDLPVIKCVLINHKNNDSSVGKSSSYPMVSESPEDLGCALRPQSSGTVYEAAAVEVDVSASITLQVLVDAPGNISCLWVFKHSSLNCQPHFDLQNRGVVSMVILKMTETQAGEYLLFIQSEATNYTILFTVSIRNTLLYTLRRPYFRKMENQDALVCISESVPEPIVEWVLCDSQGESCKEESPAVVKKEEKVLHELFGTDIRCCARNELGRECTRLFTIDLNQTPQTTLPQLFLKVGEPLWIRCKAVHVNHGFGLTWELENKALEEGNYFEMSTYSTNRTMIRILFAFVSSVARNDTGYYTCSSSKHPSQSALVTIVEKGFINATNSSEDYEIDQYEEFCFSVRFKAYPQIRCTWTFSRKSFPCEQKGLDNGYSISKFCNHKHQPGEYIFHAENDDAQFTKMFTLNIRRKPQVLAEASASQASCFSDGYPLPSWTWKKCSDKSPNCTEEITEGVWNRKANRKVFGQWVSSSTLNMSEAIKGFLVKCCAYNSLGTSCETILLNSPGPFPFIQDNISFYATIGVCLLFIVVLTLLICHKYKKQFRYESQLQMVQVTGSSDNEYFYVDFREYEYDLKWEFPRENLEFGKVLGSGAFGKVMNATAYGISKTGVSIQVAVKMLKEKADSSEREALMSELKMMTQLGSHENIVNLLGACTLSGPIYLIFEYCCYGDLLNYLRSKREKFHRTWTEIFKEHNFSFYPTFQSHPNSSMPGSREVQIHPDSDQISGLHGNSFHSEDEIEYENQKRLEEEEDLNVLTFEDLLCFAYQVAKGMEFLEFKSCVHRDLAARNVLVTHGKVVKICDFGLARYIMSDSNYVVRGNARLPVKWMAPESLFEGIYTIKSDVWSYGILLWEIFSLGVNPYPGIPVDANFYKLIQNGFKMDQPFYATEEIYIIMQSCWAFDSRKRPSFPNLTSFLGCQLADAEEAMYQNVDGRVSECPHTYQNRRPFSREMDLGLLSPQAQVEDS
The assay is described as follows: Cell proliferation assay (CellTiter-Glo), engineered BA/F3 cells. The format is cell-based, murine. The conditions noted are these: BaF3 FLT3 ITD/D835Y cells, 3d-Growth; read-out: BaF3_FLT3 ITD/D835Y 3d-Growth: IC50. Put shortly:
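MOLM-14 AML cells (endogenous FLT3 ITD, AC220-selected D835Y or F691L variants) or murine Ba/F3 expressing full-length FLT3 ITD/D835Y, without IL-3 for FLT3 dependence, 1×10^4 cells/well. Eight-point 1:3 series from 1 μM final, 0.2% DMSO, 3 days at 37 °C. CellTiter-Glo luminescence (ATP) gave IC50.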
Background: ATP-based viability assays read luminescence as a measure of living cells.

Structures are written as SMILES.

With `O=C(c1cccc(-c2cnc3[nH]c(-c4ccccc4)cc3c2)n1)N1CCCC(O)C1` (stereo not shown) [Compound P-0069, (3-hydroxy-1-piperidyl)-[6-(2-phenyl-1H-pyrrolo[2,3-b]pyridin-5-yl)-2-pyridyl]methanone], the GI50 is 0.0001 to 10 µM.
In the case of `NC1CCN(C(=O)c2n[nH]c3ccc(-c4cnc5[nH]c(C6=CCN(C(=O)C7CC7)C6)cc5c4)cc23)CC1` [Compound P-0074, (4-amino-1-piperidyl)-[5-[2-[1-(cyclopropanecarbonyl)-2,5-dihydropyrrol-3-yl]-1H-pyrrolo[2,3-b]pyridin-5-yl]-1H-indazol-3-yl]methanone] it was 0.0001 to 10 µM; in that of `CN(C(=O)c1cccc(-c2cnc3[nH]c(-c4ccccc4)cc3c2)n1)C1CCNC1` (stereo not shown) [Compound P-0076, N-methyl-6-(2-phenyl-1H-pyrrolo[2,3-b]pyridin-5-yl)-N-pyrrolidin-3-yl-pyridine-2-carboxamide], 0.0001 to 10 µM.
In the case of `CNC1CCCN(C(=O)c2cccc(-c3cnc4[nH]c(-c5ccccc5)cc4c3)n2)C1` (stereo not shown) [Compound P-0080, [3-(methylamino)-1-piperidyl]-[6-(2-phenyl-1H-pyrrolo[2,3-b]pyridin-5-yl)-2-pyridyl]methanone] it was 0.0001 to 10 µM; in that of `CC1(N)CCN(C(=O)c2cccc(-c3cnc4[nH]c(-c5ccccc5)cc4c3)n2)CC1` [Compound P-0081, (4-amino-4-methyl-1-piperidyl)-[6-(2-phenyl-1H-pyrrolo[2,3-b]pyridin-5-yl)-2-pyridyl]methanone], 0.0001 to 10 µM; in that of `CC1(N)CCCN(C(=O)c2cccc(-c3cnc4[nH]c(-c5ccccc5)cc4c3)n2)C1` (stereo not shown) [Compound P-0082, (3-amino-3-methyl-1-piperidyl)-[6-(2-phenyl-1H-pyrrolo[2,3-b]pyridin-5-yl)-2-pyridyl]methanone], 0.0001 to 10 µM.
In the case of `N[C@@H]1CN(C(=O)c2cccc(-c3cnc4[nH]c(-c5ccccc5)cc4c3)n2)CC12CC2` [Compound P-0083, [(7S)-7-amino-5-azaspiro[2.4]heptan-5-yl]-[6-(2-phenyl-1H-pyrrolo[2,3-b]pyridin-5-yl)-2-pyridyl]methanone] it was 0.0001 to 10 µM; in that of `CNC1CCN(Cc2cccc(-c3cnc4[nH]c(-c5ccccc5)cc4c3)n2)C1` (stereo not shown) [Compound P-0087, N-methyl-1-[[6-(2-phenyl-1H-pyrrolo[2,3-b]pyridin-5-yl)-2-pyridyl]methyl]pyrrolidin-3-amine], 0.0001 to 10 µM.
As for `O=C(c1cccc(-c2cnc3[nH]c(-c4ccccc4)cc3c2)n1)N1CCC(F)(F)CC1` [Compound P-0089, (4,4-difluoro-1-piperidyl)-[6-(2-phenyl-1H-pyrrolo[2,3-b]pyridin-5-yl)-2-pyridyl]methanone], the GI50 lay in the range of 0.0001 to 10 µM.
In the case of `COC(=O)C1(C)CCN(C(=O)c2cccc(-c3cnc4[nH]c(-c5ccccc5)cc4c3)n2)CC1` [Compound P-0092, methyl 4-methyl-1-[6-(2-phenyl-1H-pyrrolo[2,3-b]pyridin-5-yl)pyridine-2-carbonyl]piperidine-4-carboxylate] it was 0.0001 to 10 µM.
